Source: patent US7521192B2, “EDG: modulators of lymphocyte activation and migration” (Rigel Pharmaceuticals, Inc., priority 2001, dated 2009)
Entries after “also recorded” stand apart in the source; their conditions may differ.

How the values were obtained:
EDG-1 [1] = assay: anti-BCR induced CD69 upregulation in BJAB cells expressing TIG-EDG-1 constructs; assay type: cell-based
EDG-1 [2] = target: T1, EDG-1 (Homo sapiens, UniProt P21453); assay: as above; assay type: cell-based
Jurkat cells [3] = assay: SPP-induced migration assay in Jurkat cells; assay type: cell-based, human
Excerpt: (§1) “Lymphocyte migration” refers to migration of B and T lymphocytes to and from primary and secondary lymphoid organs (e.g., bone marrow, thymus, lymph nodes, spleen, Peyer's patch, and tonsils), the periphery, and non-lymphoid tissues via the blood stream, lymphatic vessels, and by penetration of capillary walls (see, e.g., Paul, Immunology (3rd ed., 1993) (Chapters 4 and 6)). […] SPP and LPA are present in serum and are produced by a number of cells, including platelets and fibroblasts. Ligand-induced lymphocyte migration can be measured using the assay described in FIG. 33A, in which lymphocytes migrate toward the ligand from an upper to a lower chamber. The sphingolipid analog compound 2-amino-2(2-[4-octylphenyl]ethyl)-1,3-propanediol hydrochloride and analogs thereof inhibit such migration. The C-terminus of EDG-1 appears to be involved in migration. Such domains (e.g., the cytoplasmic tail of EDG-1) can be used in high throughput binding assays for compounds that modulate lymphocyte migration.
(§2) As described above, in one embodiment, lymphocyte activation is measured by contacting T cells comprising an EDG target with a potential modulator and activating the cells with an anti-TCR antibody. […] In another embodiment, lymphocyte migration is measured by observing T cell migration from an upper to a lower chamber containing an EDG ligand such as SPP.

Jurkat cells [4] = assay: anti-TCR-induced CD69 upregulation in naive Jurkat cells; assay type: cell-based, human
Experimental: Stimulation: For CD69 upregulation experiments, tTA-Jurkat cells were split to 2.5×10^5 cells/ml 24 hours prior to stimulation. Cells were spun and resuspended at 5×10^5 cells/ml in fresh complete RPMI medium in the presence of 100 ng/ml […] (anti-Jurkat clonotypic TCR) or 5 ng/ml PMA hybridoma supernatant for 20-26 hours at 37° C., and then assayed for surface CD69 expression. Cell surface marker analysis: Jurkat-N cells were stained with an APC-conjugated mouse monoclonal anti-human CD69 antibody (Caltag) at 4° C. for 20 minutes and analyzed using a Facscalibur instrument (Becton Dickinson) with Cellquest software. Cell sorts were performed on a MoFlo (Cytomation).

BJAB cells = assay: anti-BCR-induced CD69 upregulation in naive BJAB cells; assay type: cell-based
EDG-1 [5] = target: T1, EDG-1; assay: EDG-1 mediated SPP-induced lymphocyte migration; assay type: cell-based; conditions: lymphocytes migrating toward ligand from upper to lower chamber
Excerpt: (§3) “Lymphocyte migration” refers to migration of B and T lymphocytes to and from primary and secondary lymphoid organs (e.g., bone marrow, thymus, lymph nodes, spleen, Peyer's patch, and tonsils), the periphery, and non-lymphoid tissues via the blood stream, lymphatic vessels, and by penetration of capillary walls (see, e.g., Paul, Immunology (3rd ed., 1993) (Chapters 4 and 6)). […] SPP and LPA are present in serum and are produced by a number of cells, including platelets and fibroblasts. Ligand-induced lymphocyte migration can be measured using the assay described in FIG. 33A, in which lymphocytes migrate toward the ligand from an upper to a lower chamber.
(§4) As described above, in one embodiment, lymphocyte activation is measured by contacting T cells comprising an EDG target with a potential modulator and activating the cells with an anti-TCR antibody. Modulation of T cell activation is identified by screening for cell surface marker expression, e.g., CD69 expression levels, using fluorescent antibodies and FACS sorting. In another embodiment, lymphocyte migration is measured by observing T cell migration from an upper to a lower chamber containing an EDG ligand such as SPP.

EDG-1 [6] = target: T1, EDG-1; assay: EDG-1 wild-type enhanced SPP-induced migration in Jurkat cells; assay type: cell-based; conditions: Jurkat cells expressing EDG-1 wild-type
Excerpt: as §3, §4

EDG-1 [7] = target: T1, EDG-1; assay: EDG-1 wild-type induced CD69 inhibition in Jurkat cells; assay type: cell-based; conditions: Jurkat cells expressing EDG-1 wild-type
Experimental: Stimulation: For CD69 upregulation experiments, tTA-Jurkat cells were split to 2.5×10^5 cells/ml 24 hours prior to stimulation. Cells were spun and resuspended at 5×10^5 cells/ml in fresh complete RPMI medium in the presence of 100 ng/ml [MUT] (anti-Jurkat clonotypic TCR) or 5 ng/ml PMA hybridoma supernatant for 20-26 hours at 37° C., and then assayed for surface CD69 expression. Cell surface marker analysis: Jurkat-N cells were stained with an APC-conjugated mouse monoclonal anti-human CD69 antibody (Caltag) at 4° C. for 20 minutes and analyzed using a Facscalibur instrument (Becton Dickinson) with Cellquest software. Cell sorts were performed on a MoFlo (Cytomation).

primary T cell = assay: SPP-induced primary T cell migration; assay type: cell-based; conditions: primary T cells
Excerpt: as §1, §2

T1 sequence (P21453 whole entry): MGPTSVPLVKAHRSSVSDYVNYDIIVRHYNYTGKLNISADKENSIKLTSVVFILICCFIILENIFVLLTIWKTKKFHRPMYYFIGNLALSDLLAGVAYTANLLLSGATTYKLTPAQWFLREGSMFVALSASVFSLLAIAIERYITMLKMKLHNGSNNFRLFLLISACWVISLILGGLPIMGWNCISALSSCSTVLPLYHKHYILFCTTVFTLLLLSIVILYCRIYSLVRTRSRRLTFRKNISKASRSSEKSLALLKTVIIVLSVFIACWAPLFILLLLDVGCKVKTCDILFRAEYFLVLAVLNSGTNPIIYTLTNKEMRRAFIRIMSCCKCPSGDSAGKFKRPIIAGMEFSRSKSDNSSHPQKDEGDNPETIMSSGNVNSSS

effect on wild-type EDG-1 inhibition of anti-BCR induced CD69 upregulation (EDG-1 [2]; BJAB cells expressing wild-type EDG-1) | effect on EDG-1 mediated SPP-induced (ligand-induced) lymphocyte migration (EDG-1 [5]; listed as 2-amino-2(2-[4-octylphenyl]ethyl)-1,3-propanediol hydrochloride) | effect on EDG-1 mediated SPP-induced (ligand-induced) lymphocyte migration (EDG-1 [5]; hydrochloride) | effect on EDG-1 wild-type enhanced SPP-induced migration (EDG-1 [6]) | effect on EDG-1 wild-type induced CD69 inhibition (EDG-1 [7]) | SMILES | effect on anti-BCR induced CD69 upregulation (EDG-1 [1]; BJAB cells expressing TIG vector) | effect on the inhibition of EDG-1 mediated anti-BCR induced CD69 upregulation (EDG-1 [1]; BJAB cells, FIGS. 29 and 30) | dose dependence of wild-type EDG-1 inhibition of anti-BCR induced CD69 upregulation (EDG-1 [2]; cells overexpressing wild-type EDG-1, SPP added) | migration of Jurkat cells (Jurkat cells [3]; Jurkat cells migrating toward ligand) | effect on anti-TCR-induced CD69 upregulation (Jurkat cells [4]; in the presence of CS-FBS) | effect on anti-TCR-induced CD69 upregulation (Jurkat cells [4]; regular serum) | effect on anti-BCR-induced CD69 upregulation (BJAB cells; in the presence of CS-FBS) | effect on anti-BCR-induced CD69 upregulation (BJAB cells; regular serum) | effect on SPP-induced migration (Jurkat cells [3]; Jurkat cells) | effect on SPP-induced primary T cell migration (primary T cell)
potentiates |  |  |  |  | CCCCCCCCCCCCC/C=C/[C@@H](O)[C@@H](N)COP(=O)(O)O [SPP, sphingosine-1-phosphate] | no effect | no effect | dose-dependent manner; also recorded: dose dependent manner | induced migration | no effect | no effect | no effect | no effect |  | 
 | inhibit | blocked | inhibits | no effect | CCCCCCCCc1ccc(CCC(N)(CO)CO)cc1.Cl [FTY720, 2-amino-2(2-[4-octylphenyl]ethyl)-1,3-propanediol hydrochloride] |  |  |  |  |  |  |  |  | no effect | inhibits
